Test results taken from PMC11943950, “Characterization of Flexusin A, a Novel Circular Bacteriocin Produced by Marine Bacterium Bacillus flexus R29-2” (Marine Drugs, 2025).
Values after ≈ are worked out from the molar mass of the structure shown. Read-outs that look alike come from different tables or passages of the source.

How the values were obtained:
S. aureus ATCC 6538 = test: microbe, parasite or virus in culture; format: cell-based, Staphylococcus aureus
Protocol: (§1) An array of indicator strains (S. aureus ATCC 6538, E. faecalis CICC 21605, E. faecium CICC 10004 and L. monocytogenes ATCC 19115) were used to determine the MIC of flexusin A by the methods, as reported. […] The purified powder of flexusin A was reconstituted at 256 μg/mL to serve as the stock solution. It was then used for the antibacterial activity assay over a range of 256, 128, 64, 32, 16, 8, 4, 2, 1, 0.5, 0.25, and 0.125 μg/mL. The protein concentration of the flexusin A stock solution was determined by the BCA method (BCA Protein Assay Kit, Sangon Biotech)”. Water was used as a negative control, whereas ampicillin (Solarbio, Beijing, China) was used as positive control. All assays were performed in triplicate. MIC was defined as the lowest concentration of flexusin A that inhibited indicator growth, as no visible microbial growth was observed.

[1] = tested on: L. monocytogenes ATCC 19115; test: microbe, parasite or virus in culture; format: cell-based, Listeria monocytogenes
Protocol: as §1

E. faecium CICC 10004 = test: MIC by broth microdilution; format: cell-based; conditions: Enterococcus faecium, CICC10004, 96-well, approximately 1 × 10^6 CFU/mL, 37 °C, 24 h, no visible growth, triplicate
Protocol: as §1

E. faecalis CICC 21605 = test: microbe, parasite or virus in culture; format: cell-based, Enterococcus faecalis
Protocol: as §1

[2] = treated for 30 min from 20 to 100 °C (method: 30-100 °C); read-out qualitative spot-on-lawn bioassay
[3] = pH range from 2.0 to 10.0 (method: pH 2.0-9.0), 25 °C for 2 h; read-out qualitative spot-on-lawn bioassay
[4] = HPLC purified sample, neutral water; qualitative
Protocol: (§2) The HPLC purified bacteriocin samples were made readily soluble in neutral water, and the stock solution was then tested for sensitivity to heat, pH changes, and degradative enzymes. The qualitative spot-on-lawn bioassay was used to monitor changes in antimicrobial potency after treatments mentioned. For thermal stability testing, aliquots of the HPLC-purified peptide samples were exposed to 30 °C, 40 °C, 50 °C, 60 °C, 70 °C, 80 °C, 90 °C, and 100 °C for 30 min, respectively. For the pH stability test, aliquots of the stock solutions were adjusted to pH 2.0, 3.0, 4.0, 5.0, 6.0, 7.0, 8.0, and 9.0, followed by incubation at 25 °C for 2 h.

pepsin = pepsin (Sus scrofa, UniProt P00791); conditions: pepsin 1 mg/mL, 25 mM phosphate buffer pH 2.0, 37 °C for 4 h; residual antimicrobial activity, spot-on-lawn bioassay
Protocol: as §2
(§3) Sensitivity to various degradative enzymes was determined using trypsin, papain, pepsin, chymotrypsin, and protease K at a final concentration of 1 mg/mL, respectively. All enzymes were purchased from Sigma, and their solutions were prepared in 25 mM phosphate buffer, pH 7.0 (pepsin, pH = 2.0). Solutions of the antimicrobial peptide were prepared in the same sterile buffer. After mixing the enzymatic reaction solutions were incubated at 37 °C for 4 h before residual antimicrobial activity measurement.

trypsin = trypsin 1 mg/mL, 25 mM phosphate buffer pH 7.0, 37 °C for 4 h; residual antimicrobial activity, spot-on-lawn bioassay
Protocol: as §2, §3

protease K = protease K (Parengyodontium album, UniProt P06873); conditions: protease K 1 mg/mL, 25 mM phosphate buffer pH 7.0, 37 °C for 4 h; residual antimicrobial activity, spot-on-lawn bioassay
Protocol: as §2, §3

chymotrypsin = chymotrypsin (Bos taurus, UniProt P00766); conditions: chymotrypsin 1 mg/mL, 25 mM phosphate buffer pH 7.0, 37 °C for 4 h; residual antimicrobial activity, spot-on-lawn bioassay
Protocol: as §2, §3

Sequence of pepsin (P00791 60-385): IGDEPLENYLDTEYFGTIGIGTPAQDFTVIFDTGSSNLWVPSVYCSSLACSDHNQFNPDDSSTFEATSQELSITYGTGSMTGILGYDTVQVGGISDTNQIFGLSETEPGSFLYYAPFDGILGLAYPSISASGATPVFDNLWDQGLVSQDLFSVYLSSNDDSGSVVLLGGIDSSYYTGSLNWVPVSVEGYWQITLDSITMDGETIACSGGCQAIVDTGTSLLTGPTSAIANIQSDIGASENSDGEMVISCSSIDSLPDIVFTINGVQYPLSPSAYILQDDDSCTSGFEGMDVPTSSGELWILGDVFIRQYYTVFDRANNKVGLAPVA
Sequence of protease K (P06873 106-384): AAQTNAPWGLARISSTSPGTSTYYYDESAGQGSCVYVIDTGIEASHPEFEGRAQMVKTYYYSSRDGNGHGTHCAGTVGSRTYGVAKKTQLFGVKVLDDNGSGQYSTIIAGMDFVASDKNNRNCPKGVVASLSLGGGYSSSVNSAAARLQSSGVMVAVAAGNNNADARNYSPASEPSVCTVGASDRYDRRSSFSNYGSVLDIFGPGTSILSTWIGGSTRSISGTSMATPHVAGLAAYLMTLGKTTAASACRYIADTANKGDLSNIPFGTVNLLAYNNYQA

Compound | MIC (S. aureus ATCC 6538; Staphylococcus aureus, ATCC6538, S. aureus ATCC 6538, broth microdilution, 96-well, approximately 1 × 10^6 CFU/mL, 37 °C, 24 h, no visible growth, triplicate, read-out: MIC) | MIC ([1]; Listeria monocytogenes, ATCC19115, L. monocytogenes ATCC 19115, broth microdilution, 96-well, approximately 1 × 10^6 CFU/mL, 37 °C, 24 h, no visible growth, triplicate, read-out: MIC) | MIC (E. faecium CICC 10004) | MIC (E. faecalis CICC 21605; Enterococcus faecalis, CICC21605, E. faecalis CICC 21605, broth microdilution, 96-well, approximately 1 × 10^6 CFU/mL, 37 °C, 24 h, no visible growth, triplicate, read-out: MIC) | Thermal stability (remaining activity) [2] | MIC (S. aureus ATCC 6538; ATCC 6538, 24 h) | MIC ([1]; ATCC 19115, 24 h) | pH stability (remaining activity) [3] | Solubility in water [4] | Resistance to pepsin (remaining activity) (pepsin) | Resistance to trypsin (remaining activity) (trypsin) | Resistance to protease K (remaining activity) (protease K) | Resistance to chymotrypsin (remaining activity) (chymotrypsin) | MIC (E. faecalis CICC 21605; CICC 21605, 24 h)
CC1(C)S[C@@H]2[C@H](NC(=O)[C@H](N)c3ccccc3)C(=O)N2[C@H]1C(=O)O [Amp, ampicillin, reference compound] | 0.4 µg/mL (≈ 1.14 µM) | 0.0625 µg/mL (≈ 0.179 µM) | 1.6 µg/mL (≈ 4.58 µM) | > 51.2 µg/mL |  |  |  |  |  |  |  |  |  | 
cyclo(AGALGISEYWANVIVTAIEAGSTVLALISMFASFGLTSALILTAKSLLKKGAKKTAVAYI) [flexusin A] |  |  |  |  | decent thermal stability | 1 µg/mL | 2 µg/mL | stable | water soluble | tolerant | tolerant | sensitive | sensitive | 16 µg/mL
